From PubChem BioAssay (NCI) come the findings set out here.

Test systems include A549 NSCLC; K-562 leukemia; MOLT-4 leukemia; NCI-H23 lung; NCI-H460 lung; NCI/ADR-RES ovarian; SK-MEL-5 melanoma; SR leukemia; UO-31 renal; TK-10 renal.
Common to all, as to assay: NCI tumour cell line growth inhibition, 48 h

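Briefly, cells in 96-well plates were exposed to five compound concentrations for 48 h, and endpoints were estimated by linear interpolation. Abbreviation: GI50, concentration required for 50% inhibition of growth. TGI: total growth inhibition.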

Turning to `O=C(/C=C/c1ccccc1)NNC(=O)c1c(Cl)c(Cl)c(Cl)c(Cl)c1-c1nc2ccccc2[nH]1`, the TGI with A549 NSCLC is 67.7 µM; in the assay on K-562 leukemia, above 100 µM; in the assay on MOLT-4 leukemia, above 100 µM; in the assay on NCI-H23 lung it was 60 µM; in the assay with NCI-H460 lung, 61 µM; with NCI/ADR-RES ovarian, 64.9 µM. For the same compound, the figures for the TGI in the assay on SK-MEL-5 melanoma, in the assay on SR leukemia and with UO-31 renal were 62.4 µM, above 100 µM and 55.6 µM, respectively.
As to `O=C(C[n+]1ccc2ccccc2c1)c1ccc2ccc3ccccc3c2c1`, the TGI in the assay on A549 NSCLC was 16.6 µM; in the assay with K-562 leukemia, 1.99 µM; in the assay on MOLT-4 leukemia it was 2.69 µM; in the assay on NCI-H23 lung, 17.6 µM; with NCI-H460 lung it was 5.85 µM; with NCI/ADR-RES ovarian, 32.7 µM. In addition, the TGI in the assay with SK-MEL-5 melanoma is 14.4 µM; in the assay with SR leukemia, 2.15 µM; in the assay with TK-10 renal, 8.74 µM; with UO-31 renal it was 17.6 µM.
For `O=c1[nH]nc(NNc2ccccc2)c2nnn(C3CCCCC3)c12`, the TGI in the assay with A549 NSCLC, with K-562 leukemia, in the assay on MOLT-4 leukemia, with NCI-H23 lung, in the assay on NCI-H460 lung and with NCI/ADR-RES ovarian was above 100 µM in each case. For the same compound, the TGI with SK-MEL-5 melanoma, in the assay on SR leukemia, with TK-10 renal and in the assay on UO-31 renal was above 100 µM each time.
As for `CCOC(=O)C1=NN(c2ccc(C)cc2)C2=CC(C)=NN(C)C(=S)N21`, the TGI in the assay on A549 NSCLC, with K-562 leukemia, in the assay on MOLT-4 leukemia, in the assay on NCI-H23 lung, in the assay with NCI-H460 lung and in the assay on NCI/ADR-RES ovarian was above 100 µM throughout. For the same compound, the TGI in the assay with SK-MEL-5 melanoma, in the assay on SR leukemia, in the assay with TK-10 renal and in the assay with UO-31 renal was above 100 µM in each case.
Consider `NCCCCc1cc(O)c2c(c1O)C(=O)c1ccccc1C2=O`, for which the TGI in the assay with A549 NSCLC is 16.9 µM; with K-562 leukemia it was 17.3 µM; with MOLT-4 leukemia, 10.1 µM; in the assay with NCI-H23 lung, 28.4 µM; with NCI-H460 lung it was 26.6 µM; in the assay with NCI/ADR-RES ovarian, 30.5 µM. The TGI in the assay with SK-MEL-5 melanoma turned out to be 28.3 µM; in the assay with SR leukemia it was 19.8 µM; with TK-10 renal, 34 µM; with UO-31 renal, 20.3 µM.
Consider `NCCSC(c1ccccc1)c1ccccc1`, for which the TGI in the assay with A549 NSCLC is above 100 µM; in the assay on MOLT-4 leukemia, 42.6 µM; with NCI-H23 lung, above 100 µM; in the assay with NCI-H460 lung, 29.3 µM; in the assay on NCI/ADR-RES ovarian, above 100 µM; with SK-MEL-5 melanoma, 31.1 µM. In addition, the TGI is 43 µM in the assay on SR leukemia, 31.8 µM in the assay on TK-10 renal and 33.2 µM in the assay on UO-31 renal.
As for `Cc1nn(-c2ccccc2)c(C)c1/C=N/N=C1\SCC(=O)N1c1ccccc1`, the TGI in the assay with A549 NSCLC is 99.6 µM; in the assay with K-562 leukemia, above 100 µM; with MOLT-4 leukemia, above 100 µM; with NCI-H23 lung, 86.4 µM; in the assay on NCI-H460 lung, 60.2 µM; with NCI/ADR-RES ovarian, 54.4 µM. Further, the TGI in the assay with SK-MEL-5 melanoma was 30.3 µM; with SR leukemia, above 100 µM; in the assay with TK-10 renal it was 93.4 µM; in the assay on UO-31 renal it was 51.1 µM.
As for `COc1cc2c(cc1O)CC[C@@H]1[C@@H]2CC[C@]2(C)[C@@H](OCCN(C)C)CC[C@@H]12`, the GI50 in the assay with A549 NSCLC was 0.247 µM; with K-562 leukemia, 0.15 µM; in the assay with NCI-H23 lung, 0.202 µM; with NCI-H460 lung, 0.219 µM; with NCI/ADR-RES ovarian, 0.163 µM; in the assay with SK-MEL-5 melanoma, 0.0828 µM. The values for the GI50 with SR leukemia, with TK-10 renal and with UO-31 renal were 0.148 µM, 0.932 µM and 0.624 µM, respectively. Besides, the TGI with A549 NSCLC amounted to 1.19 µM; in the assay on K-562 leukemia it was 0.685 µM; in the assay on NCI-H23 lung, 1.12 µM; in the assay with NCI-H460 lung, 2.09 µM; in the assay on NCI/ADR-RES ovarian it was 0.861 µM; in the assay on SK-MEL-5 melanoma, 0.164 µM. Besides, the values for the TGI with SR leukemia, in the assay with TK-10 renal and in the assay with UO-31 renal were 0.894 µM, 2.81 µM and 1.48 µM, respectively.
As to `CC(=O)C1=C(C)N(c2ccc(C)cc2)C2(O)C=CC(=O)C3C(=O)N(c4ccccc4)C(=O)C132` (configuration not stated), the TGI is above 100 µM with A549 NSCLC; 66.3 µM in the assay with K-562 leukemia; 46.1 µM in the assay with NCI-H23 lung; above 100 µM in the assay with NCI-H460 lung; above 100 µM in the assay on NCI/ADR-RES ovarian; 34 µM with SK-MEL-5 melanoma. Further, the TGI came out at 23.7 µM in the assay on SR leukemia, 40.3 µM in the assay with TK-10 renal and 24.6 µM in the assay with UO-31 renal.
With `CC12CC3OC(=O)C1COC14OC5(C2C1=O)C(O)(CCC1C4CC(O)C2(O)CC=CC(=O)C12C)C(=O)OC35C` (configuration not stated), the TGI in the assay with A549 NSCLC, in the assay on K-562 leukemia, in the assay with MOLT-4 leukemia, with NCI-H23 lung, in the assay on NCI-H460 lung and in the assay on NCI/ADR-RES ovarian was above 100 µM throughout. For the same compound, the TGI with SK-MEL-5 melanoma, in the assay with TK-10 renal and in the assay on UO-31 renal was above 100 µM throughout.
For `CCC1CN(C(=O)c2ccccc2)C(Cc2c[nH]c3ccccc23)C(=O)C1CC(=O)OC` (configuration not stated), the TGI in the assay on K-562 leukemia, with MOLT-4 leukemia, with NCI-H23 lung, in the assay with NCI-H460 lung, with NCI/ADR-RES ovarian and with SK-MEL-5 melanoma was above 100 µM in each case. Besides, the TGI in the assay with SR leukemia, in the assay on TK-10 renal and with UO-31 renal was above 100 µM in each case.
Take `CCC(C)C1=C(OC(C)=O)[N+]2([O-])Oc3ccc(-c4c(OC(C)=O)c(OC(C)=O)c(-c5ccc(OC(C)=O)cc5)c(OC(C)=O)c4OC(C)=O)cc3OC2(C(C)CC)C(=O)N1OC(C)=O` (configuration not stated): the TGI was above 50 µM in the assay on A549 NSCLC; 39.7 µM with K-562 leukemia; 29.3 µM in the assay with MOLT-4 leukemia; above 50 µM in the assay on NCI-H23 lung; above 50 µM with NCI-H460 lung; above 50 µM with NCI/ADR-RES ovarian. Also, the TGI in the assay with SK-MEL-5 melanoma was 23 µM; in the assay on SR leukemia, 30.6 µM; with TK-10 renal it was above 50 µM; in the assay on UO-31 renal, above 50 µM.
For `CCN(CC(=O)O)C(=O)c1cccnc1`, the TGI in the assay on A549 NSCLC, with K-562 leukemia, in the assay with MOLT-4 leukemia, in the assay on NCI-H23 lung, in the assay with NCI-H460 lung and in the assay with NCI/ADR-RES ovarian was above 100 µM throughout. In addition, the TGI in the assay with SR leukemia, in the assay on TK-10 renal and in the assay with UO-31 renal was above 100 µM each time.
